Source: patent US9458137B2, “Substituted indol-5-ol derivatives and their therapeutical applications” (NantBioScience, Inc., priority 2012, dated 2016)

Assays:
Experiment in all cases: Kinase panel activity
Type in all cases: biochemical
Details in all cases: 0.1 μM, ATP Km
MST3(h) = MST3(h) (Homo sapiens, UniProt Q9Y6E0)
Method: (§1) The effect of NTW-3475 on kinase activity was tested for a wide range of kinases and is shown in Table 2: Summary Sheet, Activity % ATP Concentration: Km

cKit(D816H)(h) = cKit(D816H)(h) (Homo sapiens, UniProt P10721, D816H)
Method: as §1

CDK9/cyclin T1(h) = CDK9/cyclin T1(h) (Homo sapiens, UniProt P50750)
Method: as §1

VRK2(h) = VRK2(h) (Homo sapiens, UniProt Q86Y07)
Method: as §1

PKG1α(h) = PKG1α(h) (Homo sapiens, UniProt Q13976)
Method: as §1

GCK(h) = GCK(h) (Homo sapiens, UniProt Q12851)
Method: as §1

JNK3(h) = JNK3(h) (Homo sapiens, UniProt P53779)
Method: as §1

Bmx(h) = Bmx(h) (Homo sapiens, UniProt P51813)
Method: as §1

HIPK2(h) = HIPK2(h) (Homo sapiens, UniProt Q9H2X6)
Method: as §1

DYRK2(h) = target: T1, DYRK2(h) (Homo sapiens, UniProt Q92630)
T1 construct: purchased Millipore (KinaseProfiler service)
Method: as §1

MINK(h) = target: T2, MINK(h) (Homo sapiens, UniProt Q8N4C8)
T2 construct: purchased Millipore (KinaseProfiler service)
Method: as §1

IRR(h) = IRR(h) (Homo sapiens, UniProt P14616)
Method: as §1

Tie2(h) = target: T3, Tie2(h) (Homo sapiens, UniProt Q02763)
T3 construct: purchased Millipore (KinaseProfiler service)
Method: as §1

JAK2(h) = JAK2(h) (Homo sapiens, UniProt O60674)
Method: as §1

PhKγ2(h) = PhKγ2(h) (Homo sapiens, UniProt P15735)
Method: as §1

MSSK1(h) = target: T4, MSSK1(h) (Homo sapiens, UniProt Q9UPE1)
T4 construct: purchased Millipore (KinaseProfiler service)
Method: as §1

Pyk2(h) = target: T5, Pyk2(h) (Homo sapiens, UniProt Q14289)
T5 construct: purchased Millipore (KinaseProfiler service)
Method: as §1

SAPK2a(h) = target: T6, SAPK2a(h) (Homo sapiens, UniProt Q16539)
T6 construct: purchased Millipore (KinaseProfiler service)
Method: as §1

CaMKIIγ(h) = CaMKIIγ(h) (Homo sapiens, UniProt Q13555)
Method: as §1

STK33(h) = target: T7, STK33(h) (Homo sapiens, UniProt Q9BYT3)
T7 construct: purchased Millipore (KinaseProfiler service)
Method: as §1

SAPK2a(T106M)(h) = target: T8, SAPK2a(T106M)(h) (Homo sapiens, UniProt Q16539, T106M)
T8 construct: purchased Millipore (KinaseProfiler service)
Method: as §1

Fms(h) = Fms(h) (Homo sapiens, UniProt P07333)
Method: as §1

Rse(h) = target: T9, Rse(h) (Homo sapiens, UniProt Q06418)
T9 construct: purchased Millipore (KinaseProfiler service)
Method: as §1

IGF-1R(h) = IGF-1R(h) (Homo sapiens, UniProt P08069)
Method: as §1

SRPK1(h) = target: T10, SRPK1(h) (Homo sapiens, UniProt Q96SB4)
T10 construct: purchased Millipore (KinaseProfiler service)
Method: as §1

CHK1(h) = CHK1(h) (Homo sapiens, UniProt O14757)
Method: as §1

FAK(h) = target: T11, FAK(h) (Homo sapiens, UniProt Q05397)
T11 construct: purchased Millipore (KinaseProfiler service)
Method: as §1

P1k3(h) = P1k3(h) (Homo sapiens, UniProt Q9H4B4)
Method: as §1

TBK1(h) = target: T12, TBK1(h) (Homo sapiens, UniProt Q9UHD2)
T12 construct: purchased Millipore (KinaseProfiler service)
Method: as §1

P1k1(h) = P1k1(h) (Homo sapiens, UniProt P53350)
Method: as §1

CK2(h) = CK2(h) (Homo sapiens, UniProt P68400)
Method: as §1

CK1γ2(h) = CK1γ2(h) (Homo sapiens, UniProt P78368)
Method: as §1

NEK6(h) = NEK6(h) (Homo sapiens, UniProt Q9HC98)
Method: as §1

EphB2(h) = target: T13, EphB2(h) (Homo sapiens, UniProt P29323)
T13 construct: purchased Millipore (KinaseProfiler service)
Method: as §1

SAPK2b(h) = target: T14, SAPK2b(h) (Homo sapiens, UniProt Q15759)
T14 construct: purchased Millipore (KinaseProfiler service)
Method: as §1

Pim-2(h) = Pim-2(h) (Homo sapiens, UniProt Q9P1W9)
Method: as §1

EphA1(h) = target: T15, EphA1(h) (Homo sapiens, UniProt P21709)
T15 construct: purchased Millipore (KinaseProfiler service)
Method: as §1

ErbB4(h) = target: T16, ErbB4(h) (Homo sapiens, UniProt Q15303)
T16 construct: purchased Millipore (KinaseProfiler service)
Method: as §1

Hck(h) activated = Hck(h) activated (Homo sapiens, UniProt P08631)
Method: as §1

BrSK2(h) = BrSK2(h) (Homo sapiens, UniProt Q8IWQ3)
Method: as §1

Chain of CK2(h) (P68400 whole entry): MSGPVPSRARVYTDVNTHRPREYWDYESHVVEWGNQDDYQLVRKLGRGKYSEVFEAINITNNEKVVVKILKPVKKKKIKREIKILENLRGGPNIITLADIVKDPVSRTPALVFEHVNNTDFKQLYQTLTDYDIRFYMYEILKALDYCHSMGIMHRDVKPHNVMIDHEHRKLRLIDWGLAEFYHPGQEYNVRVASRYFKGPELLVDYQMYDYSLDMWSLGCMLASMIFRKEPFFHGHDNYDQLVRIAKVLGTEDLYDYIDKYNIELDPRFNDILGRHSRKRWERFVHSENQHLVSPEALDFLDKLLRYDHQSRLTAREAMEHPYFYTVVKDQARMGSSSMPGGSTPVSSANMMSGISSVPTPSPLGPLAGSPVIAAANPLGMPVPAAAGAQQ
Chain of CK2(h) (P67870 whole entry partner): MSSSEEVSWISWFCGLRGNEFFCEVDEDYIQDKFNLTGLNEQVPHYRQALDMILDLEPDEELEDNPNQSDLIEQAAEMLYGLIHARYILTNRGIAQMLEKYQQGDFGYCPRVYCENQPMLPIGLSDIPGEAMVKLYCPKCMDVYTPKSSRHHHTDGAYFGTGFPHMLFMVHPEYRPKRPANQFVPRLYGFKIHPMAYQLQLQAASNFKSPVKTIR
Chain of cKit(D816H)(h) (P10721 26-976 D816H): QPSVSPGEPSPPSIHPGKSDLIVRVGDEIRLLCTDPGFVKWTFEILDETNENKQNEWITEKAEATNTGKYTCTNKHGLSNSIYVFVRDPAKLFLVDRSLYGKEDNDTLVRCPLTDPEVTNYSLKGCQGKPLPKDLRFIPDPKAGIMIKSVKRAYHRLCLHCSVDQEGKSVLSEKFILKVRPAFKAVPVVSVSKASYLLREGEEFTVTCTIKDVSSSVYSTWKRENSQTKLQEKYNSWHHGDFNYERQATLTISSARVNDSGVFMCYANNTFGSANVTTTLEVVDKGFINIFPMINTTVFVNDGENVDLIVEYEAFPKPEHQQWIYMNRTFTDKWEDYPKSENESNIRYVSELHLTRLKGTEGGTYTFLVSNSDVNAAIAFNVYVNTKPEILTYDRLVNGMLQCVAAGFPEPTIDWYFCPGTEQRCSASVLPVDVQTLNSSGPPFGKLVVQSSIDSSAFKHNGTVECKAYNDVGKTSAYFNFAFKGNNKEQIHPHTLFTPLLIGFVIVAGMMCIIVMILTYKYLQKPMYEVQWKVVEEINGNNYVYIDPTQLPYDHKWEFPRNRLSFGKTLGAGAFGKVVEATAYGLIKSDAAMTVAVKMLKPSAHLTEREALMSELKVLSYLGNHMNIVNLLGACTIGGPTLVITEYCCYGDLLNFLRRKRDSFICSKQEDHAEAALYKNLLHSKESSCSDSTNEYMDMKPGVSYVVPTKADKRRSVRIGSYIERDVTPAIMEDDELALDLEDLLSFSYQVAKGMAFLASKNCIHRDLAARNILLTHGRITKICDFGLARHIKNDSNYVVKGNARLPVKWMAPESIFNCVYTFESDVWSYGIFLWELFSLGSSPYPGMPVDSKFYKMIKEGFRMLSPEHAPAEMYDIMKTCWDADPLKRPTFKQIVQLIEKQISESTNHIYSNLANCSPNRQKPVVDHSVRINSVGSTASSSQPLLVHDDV
T16 sequence (Q15303 26-1308): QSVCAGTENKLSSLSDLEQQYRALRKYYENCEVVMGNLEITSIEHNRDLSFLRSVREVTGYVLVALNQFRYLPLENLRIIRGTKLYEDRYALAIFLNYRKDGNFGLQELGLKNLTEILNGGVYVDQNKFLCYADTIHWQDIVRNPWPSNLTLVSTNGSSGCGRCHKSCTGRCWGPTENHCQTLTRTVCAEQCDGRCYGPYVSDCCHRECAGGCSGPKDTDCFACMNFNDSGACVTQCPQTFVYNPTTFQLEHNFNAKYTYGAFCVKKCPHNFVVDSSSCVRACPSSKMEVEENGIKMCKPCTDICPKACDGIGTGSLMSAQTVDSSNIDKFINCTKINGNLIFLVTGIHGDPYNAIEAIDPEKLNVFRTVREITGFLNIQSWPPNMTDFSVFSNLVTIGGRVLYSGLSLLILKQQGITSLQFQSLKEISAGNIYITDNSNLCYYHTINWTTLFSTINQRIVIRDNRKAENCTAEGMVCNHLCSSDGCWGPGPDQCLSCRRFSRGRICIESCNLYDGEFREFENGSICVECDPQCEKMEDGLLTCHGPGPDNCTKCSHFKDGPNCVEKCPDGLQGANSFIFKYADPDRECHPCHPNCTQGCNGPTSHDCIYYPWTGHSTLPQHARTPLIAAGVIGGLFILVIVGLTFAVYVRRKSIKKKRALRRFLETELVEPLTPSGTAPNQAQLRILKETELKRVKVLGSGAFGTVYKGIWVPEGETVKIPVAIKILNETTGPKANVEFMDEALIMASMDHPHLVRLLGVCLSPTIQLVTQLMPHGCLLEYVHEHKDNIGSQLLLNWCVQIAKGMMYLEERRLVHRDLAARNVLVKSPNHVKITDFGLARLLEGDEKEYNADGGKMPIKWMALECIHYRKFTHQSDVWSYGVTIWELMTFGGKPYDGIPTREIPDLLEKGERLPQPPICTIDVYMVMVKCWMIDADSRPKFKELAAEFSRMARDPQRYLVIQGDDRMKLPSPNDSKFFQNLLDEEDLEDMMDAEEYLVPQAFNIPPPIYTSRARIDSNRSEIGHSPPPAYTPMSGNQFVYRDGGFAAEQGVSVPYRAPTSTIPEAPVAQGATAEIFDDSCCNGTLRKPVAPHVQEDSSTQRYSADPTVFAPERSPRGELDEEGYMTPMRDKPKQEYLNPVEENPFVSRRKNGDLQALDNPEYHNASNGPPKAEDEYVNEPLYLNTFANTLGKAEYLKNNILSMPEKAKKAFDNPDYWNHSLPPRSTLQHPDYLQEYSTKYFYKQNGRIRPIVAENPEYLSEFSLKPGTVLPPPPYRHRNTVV
T5 sequence (Q14289 whole entry): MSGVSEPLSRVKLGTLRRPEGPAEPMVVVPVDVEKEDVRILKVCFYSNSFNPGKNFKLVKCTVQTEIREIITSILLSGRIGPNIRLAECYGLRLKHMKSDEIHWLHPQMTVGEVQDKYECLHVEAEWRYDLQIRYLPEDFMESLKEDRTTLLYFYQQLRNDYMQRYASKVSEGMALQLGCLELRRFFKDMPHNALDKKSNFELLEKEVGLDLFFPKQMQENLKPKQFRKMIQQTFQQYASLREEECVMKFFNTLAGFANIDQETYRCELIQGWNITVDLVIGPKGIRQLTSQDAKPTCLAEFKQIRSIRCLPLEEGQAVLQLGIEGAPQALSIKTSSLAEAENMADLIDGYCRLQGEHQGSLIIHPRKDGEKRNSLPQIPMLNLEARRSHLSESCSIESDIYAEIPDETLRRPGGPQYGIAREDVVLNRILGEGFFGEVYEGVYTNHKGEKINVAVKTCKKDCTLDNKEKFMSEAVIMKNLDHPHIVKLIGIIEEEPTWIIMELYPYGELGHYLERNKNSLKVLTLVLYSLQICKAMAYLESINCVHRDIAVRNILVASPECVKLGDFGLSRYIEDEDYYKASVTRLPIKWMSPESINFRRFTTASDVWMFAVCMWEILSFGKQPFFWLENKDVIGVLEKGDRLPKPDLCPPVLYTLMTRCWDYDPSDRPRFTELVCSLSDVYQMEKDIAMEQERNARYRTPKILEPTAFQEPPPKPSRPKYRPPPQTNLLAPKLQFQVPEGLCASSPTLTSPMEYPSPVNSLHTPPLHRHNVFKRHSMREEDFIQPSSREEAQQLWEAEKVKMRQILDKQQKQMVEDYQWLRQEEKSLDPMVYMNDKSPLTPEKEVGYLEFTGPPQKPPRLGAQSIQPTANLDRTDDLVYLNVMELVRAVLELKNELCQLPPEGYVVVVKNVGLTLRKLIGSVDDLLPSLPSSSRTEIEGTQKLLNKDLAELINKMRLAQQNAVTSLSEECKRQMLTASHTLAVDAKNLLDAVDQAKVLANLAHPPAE
Chain of PhKγ2(h) (P15735 whole entry): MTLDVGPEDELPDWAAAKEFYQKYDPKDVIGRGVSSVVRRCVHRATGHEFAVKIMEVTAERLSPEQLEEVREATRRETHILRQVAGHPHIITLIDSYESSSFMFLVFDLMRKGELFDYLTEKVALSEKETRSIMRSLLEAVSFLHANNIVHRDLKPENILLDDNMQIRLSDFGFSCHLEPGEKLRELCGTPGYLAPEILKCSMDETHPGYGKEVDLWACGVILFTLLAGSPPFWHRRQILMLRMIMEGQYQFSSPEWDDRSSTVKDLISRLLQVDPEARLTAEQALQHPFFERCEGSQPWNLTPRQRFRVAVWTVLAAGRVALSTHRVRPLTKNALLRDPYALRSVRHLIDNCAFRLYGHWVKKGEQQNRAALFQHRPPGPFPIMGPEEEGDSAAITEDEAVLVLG
Chain of P1k1(h) (P53350 whole entry): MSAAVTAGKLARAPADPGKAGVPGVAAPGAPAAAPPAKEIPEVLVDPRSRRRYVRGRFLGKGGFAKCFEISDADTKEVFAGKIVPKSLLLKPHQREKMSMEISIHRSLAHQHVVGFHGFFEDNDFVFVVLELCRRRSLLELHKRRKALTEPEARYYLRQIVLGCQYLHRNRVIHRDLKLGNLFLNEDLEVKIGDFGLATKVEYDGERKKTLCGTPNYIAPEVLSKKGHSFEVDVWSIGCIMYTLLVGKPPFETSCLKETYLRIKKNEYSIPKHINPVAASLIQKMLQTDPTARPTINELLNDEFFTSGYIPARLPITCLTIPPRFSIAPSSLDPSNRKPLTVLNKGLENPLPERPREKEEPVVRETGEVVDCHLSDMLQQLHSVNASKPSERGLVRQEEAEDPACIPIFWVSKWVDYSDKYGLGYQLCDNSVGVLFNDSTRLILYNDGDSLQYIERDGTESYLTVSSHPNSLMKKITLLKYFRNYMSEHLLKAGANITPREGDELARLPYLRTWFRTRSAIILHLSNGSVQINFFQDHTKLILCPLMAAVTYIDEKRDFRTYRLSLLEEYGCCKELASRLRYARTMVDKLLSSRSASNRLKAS

Cc1cc2c(F)c(Oc3nc(Nc4cc(C5CC5)[nH]n4)cc(N4CCN(C)CC4)n3)cc(F)c2[nH]1 [NTW-3475]
Activity % (MST3(h)): 9% | Activity % (cKit(D816H)(h)): 9% | Activity % (CDK9/cyclin T1(h)): 52% | Activity % (VRK2(h)): 99% | Activity % (PKG1α(h)): 100% | Activity % (GCK(h)): 13% | Activity % (JNK3(h)): 111% | Activity % (Bmx(h)): 1% | Activity % (HIPK2(h)): 101% | Activity % (DYRK2(h)): 96% | Activity % (MINK(h)): 75% | Activity % (IRR(h)): 6% | Activity % (Tie2(h)): 0% | Activity % (JAK2(h)): 8% | Activity % (PhKγ2(h)): 77% | Activity % (MSSK1(h)): 110% | Activity % (Pyk2(h)): 59% | Activity % (SAPK2a(h)): 79% | Activity % (CaMKIIγ(h)): 87% | Activity % (STK33(h)): 101% | Activity % (SAPK2a(T106M)(h)): 95% | Activity % (Fms(h)): 8% | Activity % (Rse(h)): 55% | Activity % (IGF-1R(h)): 5% | Activity % (SRPK1(h)): 96% | Activity % (CHK1(h)): 113% | Activity % (FAK(h)): 78% | Activity % (P1k3(h)): 95% | Activity % (TBK1(h)): 28% | Activity % (P1k1(h)): 107% | Activity % (CK2(h)): 85% | Activity % (CK1γ2(h)): 134% | Activity % (NEK6(h)): 90% | Activity % (EphB2(h)): 21% | Activity % (SAPK2b(h)): 103% | Activity % (Pim-2(h)): 96% | Activity % (EphA1(h)): 12% | Activity % (ErbB4(h)): 90% | Activity % (Hck(h) activated): 12% | Activity % (BrSK2(h)): 44%
